In patent US4582700A, “Products and processes” (Mallinckrodt, Inc., priority 1983, dated 1986):

Assay: Comparative 5 minute biodistribution of A-E and 201TlCl in rats
Format: in vivo, female Sprague-Dawley rats
Conditions: rat, i.v. 25 uCi/kg
Experimental: The following pharmacological studies were conducted on Complex (A), prepared by the method of Example 1; Complex (B), prepared by the method of Example 2; Complex (C) prepared by the method of Example 4; Complex (D) prepared by the method of Example 6; and Complex (E) prepared by the method of Example 7. Where indicated, Thallium-201 was used for comparative purposes.
The biodistribution of the experimental ^99m Tc(I) complexes in rats was compared with Thallium-201, currently the radionuclide of choice for myocardial perfusion imaging. Complex A was supplied as a vacuum-evaporated preparation and reconstituted with 0.9% Sodium Chloride, Injection, U.S.P. The ^99m Tc(I) complexes and ^201 TlCl solutions were diluted to concentrations of 12.5 uCi/ml with 0.9% Sodium Chloride, Injection, U.S.P. for dosing. Groups of 4-12 female Sprague-Dawley rats with body weights ranging from 180-231 g received single intraveneous injections of 25uCi/kg of Complex A, Complex B, Complex C, Complex D, Complex E, or ^201 TlCl.
Animals were sacrificed 5 minutes after dosing and radioactivity concentrations were determined by gamma scintillation spectroscopy in blood, heart, liver, lungs, kidney and skeletal muscle. As a measurement of selectivity of myocardial uptake, heart/blood, heart/liver and heart/lung tissue ratios were determined.

## [Cl][201Tl] [^201 TlCl]
5 min, blood
  Mean % Dose/g or ml, Blood: 0.26 % Dose/g or ml
5 min, heart
  Mean % Dose/g or ml, Heart: 6.35 % Dose/g or ml
5 min, kidney
  Mean % Dose/g or ml, Kidney: 6.53 % Dose/g or ml
5 min, liver
  Mean % Dose/g or ml, Liver: 1.01 % Dose/g or ml
5 min, lung
  Mean % Dose/g or ml, Lung: 4.69 % Dose/g or ml
5 min, skeletal muscle
  Mean % Dose/g or ml, Muscle: 0.82 % Dose/g or ml
5 min after dosing
  Mean Tissue Ratio Heart/Blood: 24.31
  Mean Tissue Ratio Heart/Liver: 6.31
  Mean Tissue Ratio Heart/Lung: 1.35
